# Reference: patent US10308617B2, “Triazole benzamide derivatives and the compositions and methods of treatment regarding the same” (An2H Discovery Limited, priority 2016, dated 2019)
# System: subcutaneous Calu-6 (lung cancer) xenograft
# Experiment: In Vivo Cancer Xenograft Assay, Calu-6
# Set-up: species or system nude mice
# Conditions: 5 or 10 mg/kg daily IP
# Protocol: Compound F was evaluated for in vivo therapeutic efficacy in the treatment of subcutaneous HCT-116 (colon cancer) and Calu-6 (lung cancer) xenograft models in nude mice.
# Each mouse was inoculated subcutaneously at the flank region with either HCT-116 or Calu-6 tumor cells ([…]) in 0.1 ml of 1×PBS mixed with Matrigel (1:1) for tumor development and xenotransplantation.
# Twenty (20) animals with approx […] tumors were selected for HCT-116 follow up experiment and randomly placed into Groups 1, 2, 3, and 4, wherein Group 1 was for mice administered with a vehicle negative control; Group 2 was positive control of Mice treated with Bevacizumab at 5 mg/kg every three days; Group 3 was mice treated with 5 mg/kg of Compound f daily for up to 20 days; and Group 4 was mice treated with 10 mg/kg of Compound F daily for up to 20 days. The vehicle with or without drug was administered to the mouse by intraperitoneal injection. […]
# After tumor cells inoculation, the animals were checked daily for morbidity and mortality. […] Death and observed clinical signs were recorded. Tumor volumes were measured every three days in two dimensions using an electronic caliper, and the volume data are expressed in mm^3 using the formula: V=0.5 a×b2 where a and b are the long and short diameters of the tumor, respectively. Tumor volume average was then recorded for each day for groups 1-4 until day 26. […]
smiles,measurement,value
"Cc1ccccc1C(=O)Nc1nc(NC(=O)c2ccccc2C)n(-c2ccccc2)n1 [Compound F, 2-methyl-N-[5-[(2-methylbenzoyl)amino]-1-phenyl-1,2,4-triazol-3-yl]benzamide]",delay of subcutaneous Calu-6 tumor growth,effective of delaying growth
